Experimental data reported in patent US20050075494A1, “Isolated nucleic acid molecules encoding a human and mouse g protein-coupled receptor-gpr54: encoded proteins, cells transformed therewith and uses thereof” (priority 2000, published 2005).

What was measured:
Format in all cases: cell-based
[1] = target: T1, Human GPR54 receptor (Homo sapiens, UniProt Q969F8, L364H); assay: aequorin assay in HEK293/aeq17 cells expressing human GPR54; conditions: aequorin luminescence, 5-fold serial dilutions, triplicates
T1 construct: Clones containing full-length GPR54 were thus identified; expressed in transfected cells
Description: The HEK293/aeq17 cell line was licensed in from NIH (Button and Brownstein, 1993, Cell Calcium, 14:663-671). The cells were grown in Dulbecco's Modified Medium (MEM, GIBCO-BRL, Gaithersburg, Md., USA)+10% fetal bovine serum (heat inactivated), 1 mM sodium pyruvate, 500 ug/ml Geneticin, 100 ug/ml streptomycin, 100 units/ml penicillin. […] Puromycin-resistant clones were selected and bulk stables were used for further analysis.
For the aequorin assay, cell were washed once with DMEM+0.1% fetal bovine serum, and then charged for one hour at 37° C. 15% CO2 in DMEM containing 8 uM coelenterazine cp (Molecular Probes, Eugene, Oreg., USA) and 30 uM glutathione. […] The cell density was determined by counting with a hemacytometer and adjusted to 500,000 cells/ml in ECB.
The neuropeptides were diluted in ECB into 2× concentrates using 5-fold serial dilutions, and aliquoted into assay plates in triplicates at 0.1 ml/well. The cell suspension was injected at 0.1 ml/well, read and integrated for a total of 400 readings using a luminometer (Luminoskan Ascent, Labsystems Oy, Helsinki, Finland). Data was analyzed using the software GraphPad Prism Version 3.0 (GraphPad Software, Inc., San Diego, Calif., USA).

[2] = target: T2, rat GPR54 (Rattus norvegicus, UniProt Q924U1); assay: β-lactamase reporter enzyme assay in CHO-NPAT-bla cells expressing rat GPR54
T2 construct: expressed in transfected cells
Description: The full-length coding sequence of rat GPR54 was sub-cloned into the expression vector pIRESpuromycin (Clontech, Palo Alto, Calif., USA) in accordance with the manufactures directions. This GPR54 plasmid was transfected into Aurora's CHO-NPAT-bla cells using the reagent Lipofectamine 2000 (GIBCO-BRL, Gaithersburg, Md., USA). Puromycin-resistant bulk stables expressing rat GPR54 were selected and used for screening for agonist.
β-lactamase assays were carried as described by (Zlokarnik et al., 1998, Quantitation of transcription and clonal selection of single living cells with beta-lactamase as reporter. Science 1998, 279:84-88). All peptides were from Phoenix Pharmaceuticals. […] Four (4) hours after the addition of ligands, cells were loaded with dye and measured for fluorescence approximately 45 minutes later.
An extremely sensitive transcription-based assay is disclosed in Zlokarnik et al., 1998, Science 279:84-88 (Zlokarnik) and also in U.S. Pat. No. 5,741,657, both of which are incorporated by reference in their entirety herein. […] This increase in β-lactamase is measured by treating the cells with a cell-permeable dye that is a substrate for cleavage by β-lactamase. […] In the intact dye, the two fluorescent moieties are physically linked, and thus close enough to one another that fluorescence resonance energy transfer FRET) can take place between them. […]

[3] = test system: Control cells (cells that do not express rat GPR54); assay: β-lactamase reporter assay in control cells; conditions: data not shown
Description: β-lactamase assays were carried as described by (Zlokarnik et al., 1998, Quantitation of transcription and clonal selection of single living cells with beta-lactamase as reporter. Science 1998, 279:84-88). All peptides were from Phoenix Pharmaceuticals. Cells were seeded two days prior to assay. The day before being assayed, cells were changed to serum-free media. Four (4) hours after the addition of ligands, cells were loaded with dye and measured for fluorescence approximately 45 minutes later.
These peptides were then individually tested against GPR54-expressing cells.

T2 sequence (Q924U1 whole entry): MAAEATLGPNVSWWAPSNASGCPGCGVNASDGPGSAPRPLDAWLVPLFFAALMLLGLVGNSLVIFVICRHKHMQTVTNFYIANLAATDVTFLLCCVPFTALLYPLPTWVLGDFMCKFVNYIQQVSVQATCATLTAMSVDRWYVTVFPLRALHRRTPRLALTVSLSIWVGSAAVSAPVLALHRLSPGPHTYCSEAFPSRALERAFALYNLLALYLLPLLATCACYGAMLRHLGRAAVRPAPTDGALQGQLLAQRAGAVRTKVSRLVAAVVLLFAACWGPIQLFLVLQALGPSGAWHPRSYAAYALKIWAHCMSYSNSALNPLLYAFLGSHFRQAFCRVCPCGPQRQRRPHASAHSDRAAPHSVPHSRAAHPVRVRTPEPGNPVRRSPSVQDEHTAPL
T1 sequence (Q969F8 whole entry L364H): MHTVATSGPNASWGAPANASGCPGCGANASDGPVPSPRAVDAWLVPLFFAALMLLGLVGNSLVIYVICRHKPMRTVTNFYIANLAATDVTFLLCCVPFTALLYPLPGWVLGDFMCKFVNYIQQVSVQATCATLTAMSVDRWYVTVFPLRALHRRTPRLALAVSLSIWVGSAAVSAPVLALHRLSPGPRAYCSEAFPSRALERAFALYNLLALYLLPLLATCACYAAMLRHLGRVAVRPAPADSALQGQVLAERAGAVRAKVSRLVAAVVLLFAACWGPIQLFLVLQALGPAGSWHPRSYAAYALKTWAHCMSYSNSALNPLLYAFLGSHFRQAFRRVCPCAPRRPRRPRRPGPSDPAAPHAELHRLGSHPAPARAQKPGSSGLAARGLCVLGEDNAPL

In the case of antho-RW amide II, the “response of cells expressing Human GPR54 receptor (FIG. 9)” value [1] is reported as “robust, dose-dependent response”.
For antho-RWamide I, the “dose-response activation of rat GPR54 (FIG. 8)” value ([2]; peptides individually tested against GPR54-expressing cells) was “activated rat GPR54 in a dose-dependent manner”, the “activation of rat GPR54 in the primary screening” value ([2]; primary agonist screening, cells expressing rat GPR54, β-lactamase readout 4 hours after ligand addition) was “activate rat GPR54 specifically” and the “response of cells expressing Human GPR54 receptor (FIG. 9)” value [1] was “robust, dose-dependent response”. The “response of control cells” value [3] was “no response”.
